≈ marks a conversion by molar mass, not a printed value. Like-named read-outs stand apart in the source and are kept apart here. Marks after values point to notes of the source that are not given here.
Columns and labels:
OXA-72 = OXA-72 (Acinetobacter baumannii, UniProt Q5XQU0); assay: Ki,app against β-lactamase (Example 1, Table 1); format: biochemical; conditions: OXA-72, class D; 30 min preincubation; n.d.: too low inhibitor activity at 100 µmol/L; *: value from one of three experiments
Protocol: (§1) After stirring, the resultants were preincubated for 30 minutes at 37°C. The reporter substrate solution was incubated at 37°C for 15 minutes or more, dispensed at 100 µL/well, and measured for a change in absorbance by a microplate reader at 37°C. For each measured concentration of the positive control and the inhibitor, an initial rate (µmol/L/sec) was determined from a time to be analyzed and a change in product amount. […] Ki,app for each inhibitor concentration was calculated from the slope, the inhibitor concentration, an enzyme concentration, Km, and kcat using Expression 2. If the initial rate was determined at two or more concentrations for each inhibitor and a plurality of Ki,app could be obtained, an average value was used as the Ki,app for the inhibitor. t−tc = Km /Vmax x ([Inhibitor]/Ki,app)x Ln[S]0 /[S] [formula] Ki,app = [Inhibitor]x Km /(kcatx[Enzyme])x 1/slope [formula]
(§2) The experiment was performed in duplicate.

OXA-65 = OXA-65 (Acinetobacter baumannii, UniProt Q58XD3); assay: Ki,app against β-lactamase (Example 1, Table 1); format: biochemical; conditions: OXA-65, class D; 30 min preincubation; n.d.: too low inhibitor activity at 100 µmol/L
Protocol: as §1, §2

OXA-66 = OXA-66 (Acinetobacter baumannii, UniProt Q58XD2); assay: Ki,app against β-lactamase (Example 1, Table 1); format: biochemical; conditions: OXA-66, class D; 30 min preincubation; n.d.: too low inhibitor activity at 100 µmol/L
Protocol: as §1, §2

KPC-2 = KPC-2 (Klebsiella pneumoniae, UniProt Q9F663); assay: Ki,app against β-lactamase (Example 1, Table 1); format: biochemical
Protocol: as §1, §2

OXA-23 = OXA-23 (Acinetobacter baumannii, UniProt Q9L4P2); assay: Ki,app against β-lactamase (Example 1, Table 1); format: biochemical
Protocol: as §1, §2

OXA-48 = OXA-48 (Klebsiella pneumoniae, UniProt Q6XEC0); assay: Ki,app against β-lactamase (Example 1, Table 1); format: biochemical
Protocol: as §1, §2

KPC-38 = KPC-38 (Klebsiella pneumoniae, UniProt Q9F663); format: biochemical; conditions: read-out: Ki app; KPC-38, class A; 30 min preincubation; n.d.: too low inhibitor activity at 100 µmol/L
Protocol: as §1, §2

KPC-3 = KPC-3 (Klebsiella pneumoniae, UniProt Q9F663, H272Y); assay: biochemical; format: biochemical
Protocol: as §1, §2

anaerobic bacteria [1] = assay: microbe, parasite or virus in culture; format: cell-based
anaerobic bacteria [2] = conditions: cited from earlier work
OXA-24 = OXA-24 (Acinetobacter baumannii, UniProt Q8RLA6); assay: Ki,app against β-lactamase (Example 1, Table 1); format: biochemical; conditions: OXA-24, class D; 30 min preincubation; n.d.: too low inhibitor activity at 100 µmol/L
Protocol: as §1, §2

KPC-8 = KPC-8 (Klebsiella pneumoniae, UniProt Q9F663, H272Y/V239G); assay: biochemical
Protocol: as §1, §2

KPC-6 = KPC-6 (Klebsiella pneumoniae, UniProt Q9F663, V239G); assay: biochemical
Protocol: as §1, §2

SHV-12 = SHV-12 (Klebsiella pneumoniae, UniProt P0A3M1, L31Q); assay: Ki,app against β-lactamase (Example 1, Table 1); format: biochemical; conditions: SHV-12, class A; 30 min preincubation; n.d.: too low inhibitor activity at 100 µmol/L
Protocol: as §1, §2

CTX-M-27 = CTX-M-27 (Escherichia coli, UniProt Q840M4); assay: Ki,app against β-lactamase (Example 1, Table 1); format: biochemical; conditions: CTX-M-27, class A; 30 min preincubation; n.d.: too low inhibitor activity at 100 µmol/L
Protocol: as §1, §2

CTX-M-14 = CTX-M-14 (Escherichia coli, UniProt Q9L5C7); assay: Ki,app against β-lactamase (Example 1, Table 1); format: biochemical; conditions: CTX-M-14, class A; 30 min preincubation; n.d.: too low inhibitor activity at 100 µmol/L
Protocol: as §1, §2

KPC-31 = KPC-31 (Klebsiella pneumoniae, UniProt Q9F663, D178Y/H272Y); assay: biochemical
Protocol: as §1, §2

KPC-33 = KPC-33 (Klebsiella pneumoniae, UniProt Q9F663, D178Y); assay: biochemical
Protocol: as §1, §2

PDC-11 = PDC-11 (Pseudomonas aeruginosa, UniProt P24735, form not given, species not given); format: biochemical; conditions: PDC-11, class C; 30 min preincubation; n.d.: too low inhibitor activity at 100 µmol/L; read-out: Ki app
Protocol: as §1, §2

[3] = KPC-2, class A, 30 min preincubation, n.d.: too low inhibitor activity at 100 µmol/L, read-out: Ki app
[4] = KPC-3, class A, 30 min preincubation, n.d.: too low inhibitor activity at 100 µmol/L, read-out: Ki app

NC(=O)[C@@H]1CC[C@@H]2CN1C(=O)N2OS(=O)(=O)O [Avibactam, avibactam]
Ki (OXA-72): 691 ± 63.8 nM | Ki (OXA-65): 5900 ± 1050 nM | Ki (OXA-66): 7350 ± 963 nM

O=C(O)[C@H]1/C(=C/CO)O[C@@H]2CC(=O)N21 [Clavulanate, clavulanate]
Ki (KPC-2): 76.7 ± 38.3 nM | Ki (OXA-23): 394 ± 169 nM | Ki (OXA-48; OXA-48, class D, 30 min preincubation, n.d.: too low inhibitor activity at 100 µmol/L, read-out: Ki app): 103 ± 36.5 nM | Ki (KPC-38): 78.2 ± 20.5 nM | Ki (KPC-3): 128 ± 53.2 nM

Cc1ncc([N+](=O)[O-])n1CCO [MNZ]
MIC (anaerobic bacteria [1]; ATCC29328, Finegoldia magna ATCC 29328, read-out: MIC): 2 µg/mL (≈ 11.7 µM) | MIC (anaerobic bacteria [1]; ATCC43055, Eggerthella lenta ATCC 43055, read-out: MIC): 1 µg/mL (≈ 5.84 µM) | MIC (anaerobic bacteria [1]; ATCC43255, Clostridioides difficile ATCC 43255, read-out: MIC): 1 µg/mL (≈ 5.84 µM) | MIC (anaerobic bacteria [1]; ATCCBAA1803, Clostridioides difficile ATCC BAA-1803, read-out: MIC): 2 µg/mL (≈ 11.7 µM) | MIC (anaerobic bacteria [1]; ATCCBAA1870, Clostridioides difficile ATCC BAA-1870, read-out: MIC): 1 µg/mL (≈ 5.84 µM) | MIC (anaerobic bacteria [1]; Bacteroides fragilis, ATCC25285): 1 µg/mL (≈ 5.84 µM) | MIC (anaerobic bacteria [1]; Bacteroides ovatus): 1 µg/mL (≈ 5.84 µM) | MIC (anaerobic bacteria [1]; Bacteroides thetaiotaomicron KUB2984, read-out: MIC): 1 µg/mL (≈ 5.84 µM) | MIC (anaerobic bacteria [1]; Bacteroides thetaiotaomicron, ATCC29741): 2 µg/mL (≈ 11.7 µM) | MIC (anaerobic bacteria [1]; Clostridium perfringens, ATCC13124): 2 µg/mL (≈ 11.7 µM) | MIC (anaerobic bacteria [1]; Cutibacterium acnes, ATCC11827): > 64 µg/mL | MIC (anaerobic bacteria [1]; Fusobacterium nucleatum, ATCC25586): ≤ 0.125 µg/mL | MIC (anaerobic bacteria [1]; Fusobacterium varium, ATCC27725): 0.5 µg/mL (≈ 2.92 µM) | MIC (anaerobic bacteria [1]; Lancefieldella rimae): 1 µg/mL (≈ 5.84 µM) | MIC (anaerobic bacteria [1]; Olsenella uli): 4 µg/mL (≈ 23.4 µM) | MIC (anaerobic bacteria [1]; Parvimonas micra KUB3000, read-out: MIC): 0.5 µg/mL (≈ 2.92 µM) | MIC (anaerobic bacteria [1]; Peptoniphilus asaccharolyticus, ATCC14963): 1 µg/mL (≈ 5.84 µM) | MIC (anaerobic bacteria [1]; Peptostreptococcus anaerobius, ATCC27337): 0.5 µg/mL (≈ 2.92 µM) | MIC (anaerobic bacteria [1]; Prevotella histicola): 2 µg/mL (≈ 11.7 µM) | MIC (anaerobic bacteria [1]; Prevotella intermedia): 1 µg/mL (≈ 5.84 µM) | MIC (anaerobic bacteria [1]; Prevotella melaninogenica): 1 µg/mL (≈ 5.84 µM) | MIC (anaerobic bacteria [1]; Schaalia odontolytica, ATCC17929): > 64 µg/mL | MIC (anaerobic bacteria [1]; Segatella buccae): 2 µg/mL (≈ 11.7 µM) | Acceptable MIC range of quality control (QC) strain (anaerobic bacteria [2]; Bacteroides fragilis ATCC 25285 (QC strain)): 1 (0.25 to 1)* µg/mL | Acceptable MIC range of quality control (QC) strain (anaerobic bacteria [2]; Bacteroides thetaiotaomicron ATCC 29741 (QC strain)): 2 (0.5 to 2)* µg/mL

CC1(C)[C@H](C(=O)O)N2C(=O)C[C@H]2S1(=O)=O [Sulbactam, sulbactam]
Ki (KPC-2): 420 ± 99.2 nM | Ki (OXA-23): 681 ± 74.3 nM | Ki (OXA-48): 264 ± 116 nM | Ki (KPC-38): 405 ± 99.6 nM | Ki (KPC-3): 674 ± 239 nM

C[C@]1(Cn2ccnn2)[C@H](C(=O)O)N2C(=O)C[C@H]2S1(=O)=O [Tazobactam, tazobactam]
Ki (KPC-2; [3]): 159 nM | Ki (OXA-24): 100 ± 45.6 nM | Ki (KPC-8): 52 ± 11.8 nM | Ki (KPC-6): 79.9 ± 16.5 nM | Ki (KPC-38): 112 ± 14.5 nM | Ki (KPC-3; [4]): 270 ± 80.8 nM

O=C(O)C[C@@H]1CC[C@H](NC(=O)Cc2cccs2)B(O)O1 [Vaborbactam, vaborbactam]
Ki (KPC-2; [3]): 63.7 nM | Ki (SHV-12): 755 ± 103 nM | Ki (CTX-M-27): 351 ± 28.7 nM | Ki (CTX-M-14): 392 ± 20.3 nM | Ki (KPC-31): 13300 ± 8590 nM | Ki (KPC-8): 114 ± 22.1 nM | Ki (KPC-33): 4600 ± 437 nM | Ki (KPC-6): 109 ± 21.7 nM | Ki (KPC-38): 48.3 nM | Ki (PDC-11): 3860 ± 163 nM | Ki (KPC-3; [4]): 88.3 ± 30.3 nM

Source: patent EP4635500A1, “THERAPEUTIC AGENT FOR BACTERIAL INFECTION” (Sumitomo Pharma Co., Ltd., priority 2022, dated 2024)
